Experimental data published in US10722518B2, “Oxazine derivative for use in the treatment or prevention of cerebral amyloid angiopathy” (Novartis AG, priority 2016, dated 2020).

Key:
Aβ42 = assay: Chronic treatment of APP23 mice: Triton TX-100 soluble Aβ42 in brain; format: in vivo, mouse
Description: (§1) Frozen mouse forebrains were weighed and homogenized in 9 volumes (w/v) of ice-cold TBS-Complete (20 mM Tris-HCl pH 7.4, 137 mM NaCl, 1× Complete [Protease Inhibitor Cocktail Tablets: 1 836 145, Roche Diagnostics GmbH, Penzberg, Germany]) by sonication (90% duty cycle, output control 5, 40-55 pulses, [Sonifier 450, Branson]). After homogenization several 50 μl aliquots were prepared for analysis and were stored at −80° C.
Human Aβ40 and 42 in mice was determined with the Meso Scale Discovery (MSD) 96-well MULTI-ARRAY human/rodent (6E10) Aβ40/42 Assay (Meso Scale Discovery, Rockville, Md., USA) as described in [RD-2010-00284]. The assay was done according to the manufacturer's instructions except for the calibration curve and the sample preparations. […]
The calibration curve was prepared in a corresponding dilution of 1% Blocker A solution spiked with synthetic Aβ1-40 peptide (1.56-100 pg/ml) except for non-transgenic mouse brain samples: In this case, the calibration curve was prepared in a correspondingly diluted APP knockout mouse forebrain spiked with synthetic Aβ1-40 peptide (1.56-100 pg/ml). […] The relative units for samples and standards were imported into SOFTmax PRO 4.0 for calculation of standard curves and quantification of samples. […]

Aβ40 = assay: Chronic treatment of APP23 mice: formic acid soluble Aβ40 in forebrain; format: in vivo, mouse; details: high Compound 1 treatment group
Description: as §1
Fifty microliter of forebrain homogenate was mixed with 116.6 μl 100% formic acid, resulting in a final formic acid concentration of 70%. Samples were stored on ice and vortexed every 5 minutes. For neutralization, 50 μl of the mixture were pipetted into a new tube, and 950 μl of 1 M Tris base, containing 1× Complete Protease inhibitor, was added. Tubes were stored at room temperature overnight and then centrifuged for 15 minutes at 14000 rpm in an Eppendorf Microzentrifuge at 4° C. From the top layer, 100 μl are removed and mixed with 100 μl of 3% Blocker A solution (part of the MesoScale assay kit). This sample was either directly applied to the assay plate (dilution 1:1332) or further diluted in 1% Blocker A solution.
Amyloid-β42 increased more than Aβ40 (Aβ42/40 ratio increased by 55% in the vehicle group), in agreement with its higher aggregation propensity.

Aβ40 in CSF = assay: 3-month dose-ranging study: Aβ40 in CSF; format: in vivo; details: first-in-human and 3-month studies
Source text: This study is listed in ClinicalTrials.gov under the NCT02576639 Identifier code.
The primary purpose of this study was to expand on previous safety and tolerability data obtained over 2-week and 4-week duration in the first in human study and thereby allow initiation of future long-term efficacy trials in subjects at risk of AD and CAA. In addition, data relevant for Pharmacokinetic/Pharmacodynamic modeling was obtained in order to support dose selection decisions for future efficacy studies.
The extent of Aβ lowering was stable over time with PD steady-state being reached after approximately 2-3 weeks.
In the completed first-in-human and 3-month dose-ranging safety and tolerability clinical studies described in Examples 3 and 4, Aβ concentrations in CSF were obtained by means of lumbar punctures before the first dose (baseline) and respectively after 2 weeks and 3 months of multiple dosing. ApoE4 genotype also was obtained in the subjects who consented. The percent change from baseline in Aβ40 and Aβ42 concentrations was calculated in subjects who took the study treatment and had no major protocol deviation with potential impact on the evaluation of the pharmacodynamic effect. Tables 13 to 16 below provide summary statistics of the percent change from baseline by treatment group and ApoE genotype (E4 heterozygotes versus E4 non-carriers). […]

## C[C@@]1(c2nc(NC(=O)c3ncc(C(F)(F)F)cc3Cl)ccc2F)CO[C@@](C)(C(F)(F)F)C(N)=N1 [Compound 1, N-(6-((3R,6R)-5-amino-3,6-dimethyl-6-(trifluoromethyl)-3,6-dihydro-2H-1,4-oxazin-3-yl)-5-fluoropyridin-2-yl)-3-chloro-5-(trifluoromethyl)picolinamide]
Aβ42; 0.03 g/kg vs vehicle
  Aβ42 change vs vehicle (TX-100 soluble): −20.1%
Aβ42; 0.3 g/kg vs vehicle
  Aβ42 change vs vehicle (TX-100 soluble): −77.3%
Aβ40
  reduction of deposited Aβ40 and 42 vs vehicle: around 80%
Aβ40 in CSF
  CSF Aβ40 and Aβ42 response to treatment, ApoE4 carriers vs non-carriers: no difference
